This note sets out measurements from US7326721B2 (Hypnion, Inc., priority 2003, dated 2008).

Structures are written as SMILES. “And” between values parts separate entries of the source, which are not always exact repeats. Identical values can stand only once. Like-named read-outs stand apart in the source and are kept apart here.

In data set [1] the target is hERG (Homo sapiens, UniProt Q12809).
The target in data set [2] is T1, M2 muscarinic receptor (Homo sapiens, UniProt P08172).
T1 sequence (P08172 1-466): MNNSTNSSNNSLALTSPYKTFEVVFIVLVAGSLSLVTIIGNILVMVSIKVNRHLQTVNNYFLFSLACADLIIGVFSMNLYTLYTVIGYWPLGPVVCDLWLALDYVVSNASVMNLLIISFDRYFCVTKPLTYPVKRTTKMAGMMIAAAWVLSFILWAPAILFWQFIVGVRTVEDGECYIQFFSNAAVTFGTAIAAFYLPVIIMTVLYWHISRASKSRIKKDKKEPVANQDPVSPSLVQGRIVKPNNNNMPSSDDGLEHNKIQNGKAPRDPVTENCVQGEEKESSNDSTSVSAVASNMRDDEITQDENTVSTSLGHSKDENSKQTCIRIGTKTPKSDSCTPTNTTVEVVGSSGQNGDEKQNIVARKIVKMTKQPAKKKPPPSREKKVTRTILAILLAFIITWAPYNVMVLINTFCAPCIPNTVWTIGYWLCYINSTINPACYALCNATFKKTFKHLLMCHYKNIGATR
Description: Muscarinic M2 binding assay. The note with it: read-out: Ki M2. Also noted: purchased PerkinElmer, Inc., Wellesley, Mass; host or cells: CHO cells.

Data set [3] has as its target M3 muscarinic receptor (Homo sapiens, UniProt P20309). Description: Muscarinic M3 binding assay. Further details: purchased PerkinElmer, Inc., Wellesley, Mass; host or cells: CHO cells. The note with it: read-out: Ki M3.
Data set [4] addresses T2, M1 muscarinic receptor (Homo sapiens, UniProt P11229).
T2 sequence (P11229 1-460): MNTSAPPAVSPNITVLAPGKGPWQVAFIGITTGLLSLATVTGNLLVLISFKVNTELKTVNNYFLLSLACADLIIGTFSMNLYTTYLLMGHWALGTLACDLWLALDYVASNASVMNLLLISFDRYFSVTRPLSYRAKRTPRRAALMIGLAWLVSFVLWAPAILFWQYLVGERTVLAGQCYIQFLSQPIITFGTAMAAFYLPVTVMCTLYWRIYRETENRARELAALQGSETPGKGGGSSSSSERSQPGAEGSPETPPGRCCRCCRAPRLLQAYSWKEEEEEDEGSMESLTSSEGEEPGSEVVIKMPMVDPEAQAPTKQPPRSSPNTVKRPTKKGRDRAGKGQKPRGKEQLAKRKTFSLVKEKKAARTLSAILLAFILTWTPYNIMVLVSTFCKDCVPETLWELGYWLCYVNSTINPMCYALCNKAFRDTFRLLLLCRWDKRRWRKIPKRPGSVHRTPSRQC
Put plainly: Muscarinic M1 binding assay ([3H]-scopolamine, N-methyl chloride). Further details: purchased PerkinElmer, Inc., Wellesley, Mass; host or cells: CHO cells. The note with it: read-out: Ki M1.

In data set [5] the test system is adult male Wistar rats. Description: SCORE-2000 sleep-wakefulness, locomotor activity and body temperature monitoring. The format is in vivo, rat.
The subject of data set [6] is male Wistar rats. The format is in vivo. As to the method:
The Irwin screen can provide useful information on potential side effects of compounds on general physiological and behavioural functions. The screen was conducted by administering the test compounds orally in 0.25% aqueous methylcellulose using male Wistar rats, a frequently used species in such studies and for which background data are readily available.
The Irwin screen tests for numerous parameters in animals that have been administered the test compound. For example, the screen can include: in-cage effects, e.g., dispersion, respiratory rate, locomotor activity, restlessness, fighting, alertness, apathy, and exophthalmus; in-arena effects, e.g., transfer arousal, spatial locomotion, ptosis, startle, tail elevation, piloerection, touch escape, positional passivity, catalepsy, tighting reflex, visual placing, grip strength, pinna, corneal, pain response, and wire manoeuvre; parameters observed in handling, e.g., cyanosis, cutaneous blood flow, hypothermia, body tone, pupil size, light-pupil response, lacrimation, grooming, red staining, salivation, and provoked biting; general scores e.g., fearfulness, irritability, abnormal gait, abnormal body carriage, tremors, twitches, convulsions, bizarre behaviour, writhing, vocalisation, diarrhoea, number of defaecations, number of urinations, moribund, lethality, and abnormalities detected. Further details can be found in Irwin, S; Comprehensive observational assessment: I a. A systematic, quantitative procedure for assessing the behavioural and physiological state of the mouse.
Irwin screening of the disclosed sleep-inducing agents was performed by Covance (Princeton, N.J.) according to Irwin, above; Covance Standard Operating Procedure (current revision of SOP PHARM 8.10); relevant regulatory authority guidelines ICH (International Committee for Harmonization) Guideline (Topic S7A; CPMP/ICH/539/00) on Safety Pharmacology Studies for human pharmaceuticals (November 2000); and all procedures carried out on live animals were subject to the provisions of United Kingdom Law, in particular the Animals (Scientific Procedures) Act, 1986. which obliges all UK laboratories to maintain a local ethical review process to ensure that all animal use in the establishment is carefully considered and justified; that proper account is taken of all possibilities for reduction, refinement or replacement and that high standards of accommodation and care are achieved.
All test compound formulations were prepared on the day of dosing by Covance Harrogate Dispensary. The test compounds were formulated in 0.25% aqueous methylcellulose at the highest concentration required. Lower doses were obtained by serial dilution of the highest concentration using 0.25% aqueous methylcellulose. Dose levels are expressed in terms of the amount of test compound administered without regard to purity or active content. All formulations were stored at room temperature (nominally 10 to 30° C.) in sealed containers and protected from light.
An adequate number of male Wistar (Crl:WI(Glx/BRL/Han) BR:WH) rats were obtained from Charles River Ltd. (Margate, Kent, United Kingdom). The rats were approximately 5 weeks of age and weighed between 150 and 170 g on arrival. The animals were housed in groups of no more than six in polypropylene cages (33×15×13 cm) or (45×28×20 cm) with solid floors and Grade 10 woodflakes (Datesand Ltd., Cheshire, United Kingdom) as bedding. The cages were cleaned and dried before use. Aspen chew blocks were placed within the cages as a form of environmental enrichment. Routinely, holding rooms were maintained within acceptable limits for temperature and relative humidity (nominally 19 to 25° C. and 40% to 70%, respectively). These rooms were illuminated by fluorescent light for 12 hours out of each 24 hour cycle and designed to receive at least 15 fresh air changes per hour. […]

Data set [7] deals with T3, H1 histamine receptor (Bos taurus, UniProt P30546).
T3 construct: the receptors were obtained from bovine cerebellar membrane tissue; from tissue; host or cells: bovine cerebellar membranes
T3 sequence (P30546 whole entry): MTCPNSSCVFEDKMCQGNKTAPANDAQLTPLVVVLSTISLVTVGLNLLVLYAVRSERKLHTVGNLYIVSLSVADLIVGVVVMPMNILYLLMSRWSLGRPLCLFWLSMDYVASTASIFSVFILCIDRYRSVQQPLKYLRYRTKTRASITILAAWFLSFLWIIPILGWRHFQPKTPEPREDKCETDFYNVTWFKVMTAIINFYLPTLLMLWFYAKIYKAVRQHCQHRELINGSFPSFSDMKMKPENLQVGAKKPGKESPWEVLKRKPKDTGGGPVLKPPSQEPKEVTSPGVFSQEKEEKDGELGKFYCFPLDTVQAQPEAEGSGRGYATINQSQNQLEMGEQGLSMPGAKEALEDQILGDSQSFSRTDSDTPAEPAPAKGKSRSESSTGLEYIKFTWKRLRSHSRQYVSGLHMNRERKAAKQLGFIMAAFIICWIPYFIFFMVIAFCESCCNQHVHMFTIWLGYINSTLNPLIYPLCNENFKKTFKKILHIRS
Description: Histamine H1 competitive binding assay ([3H]pyrilamine). Further details: species or system bovine. The note with it: read-out: Ki H1.

hERG, sequence (Q12809 whole entry): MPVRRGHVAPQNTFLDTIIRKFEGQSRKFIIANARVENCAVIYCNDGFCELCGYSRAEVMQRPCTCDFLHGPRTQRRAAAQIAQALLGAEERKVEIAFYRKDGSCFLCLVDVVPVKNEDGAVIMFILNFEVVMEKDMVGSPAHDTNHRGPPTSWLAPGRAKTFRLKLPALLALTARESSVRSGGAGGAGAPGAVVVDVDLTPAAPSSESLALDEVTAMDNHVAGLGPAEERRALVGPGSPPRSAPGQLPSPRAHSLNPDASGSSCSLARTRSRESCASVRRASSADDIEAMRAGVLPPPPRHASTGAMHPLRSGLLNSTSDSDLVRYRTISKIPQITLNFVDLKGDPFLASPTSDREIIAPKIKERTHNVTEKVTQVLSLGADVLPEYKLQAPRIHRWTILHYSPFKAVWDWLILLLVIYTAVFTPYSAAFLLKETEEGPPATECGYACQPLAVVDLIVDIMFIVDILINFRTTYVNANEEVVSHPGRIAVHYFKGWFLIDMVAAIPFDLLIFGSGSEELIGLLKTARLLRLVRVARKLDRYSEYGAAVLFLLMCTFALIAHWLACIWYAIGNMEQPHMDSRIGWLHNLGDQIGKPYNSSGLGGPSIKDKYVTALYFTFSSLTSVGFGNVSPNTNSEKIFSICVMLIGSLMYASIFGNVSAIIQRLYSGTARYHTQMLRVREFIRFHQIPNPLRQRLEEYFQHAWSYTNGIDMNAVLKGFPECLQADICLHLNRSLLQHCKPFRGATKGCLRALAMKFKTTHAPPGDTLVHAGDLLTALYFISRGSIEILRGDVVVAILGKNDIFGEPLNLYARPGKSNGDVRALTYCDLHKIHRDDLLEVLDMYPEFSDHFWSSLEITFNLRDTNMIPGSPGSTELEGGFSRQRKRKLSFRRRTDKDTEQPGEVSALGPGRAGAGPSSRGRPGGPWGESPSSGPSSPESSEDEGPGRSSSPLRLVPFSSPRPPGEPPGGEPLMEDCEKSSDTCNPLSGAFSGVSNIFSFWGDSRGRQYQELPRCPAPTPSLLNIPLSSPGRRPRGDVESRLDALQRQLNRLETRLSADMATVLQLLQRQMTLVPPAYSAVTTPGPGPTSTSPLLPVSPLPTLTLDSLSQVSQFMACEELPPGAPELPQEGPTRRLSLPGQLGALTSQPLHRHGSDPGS
M3 muscarinic receptor, sequence (P20309 whole entry): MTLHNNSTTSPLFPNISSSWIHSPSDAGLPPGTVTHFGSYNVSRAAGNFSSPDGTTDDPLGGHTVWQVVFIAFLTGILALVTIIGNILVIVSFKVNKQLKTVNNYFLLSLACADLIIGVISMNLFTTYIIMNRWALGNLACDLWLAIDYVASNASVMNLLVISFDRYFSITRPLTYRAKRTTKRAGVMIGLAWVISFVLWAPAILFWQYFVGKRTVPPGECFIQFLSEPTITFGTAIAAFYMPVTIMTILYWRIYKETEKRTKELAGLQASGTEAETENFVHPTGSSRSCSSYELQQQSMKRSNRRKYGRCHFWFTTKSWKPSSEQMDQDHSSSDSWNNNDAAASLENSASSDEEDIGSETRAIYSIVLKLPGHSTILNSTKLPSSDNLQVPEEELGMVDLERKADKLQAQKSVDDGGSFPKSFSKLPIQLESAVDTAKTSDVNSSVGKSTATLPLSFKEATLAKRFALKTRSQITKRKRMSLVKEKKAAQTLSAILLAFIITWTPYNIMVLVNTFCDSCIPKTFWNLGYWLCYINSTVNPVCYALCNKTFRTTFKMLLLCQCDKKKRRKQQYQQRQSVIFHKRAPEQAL

As to `COc1ccc2c(c1)COc1ccccc1C2=C1CCN(CC(C)(C)C(=O)O)CC1` [Compound 50a], the “hERG at micromolar (% blocking of the hERG channel)” value in data set [1] (human, 10 µM, pH 7.4) is listed as 9.7% @ 10. Also, the inhibition constant Ki in data set [2] was above 10 µM; in data set [3] it was above 10 µM; in data set [4] it was above 10 µM; in data set [7], 0.0272 µM. The LUSB in data set [5] (dose 3 mg/kg oral at CT-18) amounted to 4.8 min; in data set [5] (dose 10 mg/kg oral at CT-18), 9.3 min; in data set [5] (dose 30 mg/kg oral at CT-18), 11.2 min. The NREM in data set [5] (dose 3 mg/kg oral at CT-18) stood at 12.7 min; in data set [5] (dose 10 mg/kg oral at CT-18), 32.6 min; in data set [5] (dose 30 mg/kg oral at CT-18), 41.9 min. For the same molecule, in data set [6] (rat, in vivo), the “Irwin at mg/kg dose” value was “clean”.

`CC(C)(CN1CCC(=C2c3ccc(Cl)cc3COc3ccccc32)CC1)C(=O)O` [Compound 51a]: in data set [1] (human, pH 7.4), the “hERG at micromolar (% blocking of the hERG channel)” value was found to be 40.6%. Also, the Ki was above 10 µM in data set [2], above 10 µM in data set [3], above 10 µM in data set [4] and 0.0264 µM in data set [7]. Moreover, the figures for the LUSB in data set [5] (dose 3 mg/kg oral at CT-18), in data set [5] (dose 10 mg/kg oral at CT-18) and in data set [5] (dose 30 mg/kg oral at CT-18) were 8.8 min, 18.2 min and 6.3 min, respectively. Further, the NREM stood at 32.1 min in data set [5] (dose 3 mg/kg oral at CT-18), 60.3 min in data set [5] (dose 10 mg/kg oral at CT-18) and 49.3 min in data set [5] (dose 30 mg/kg oral at CT-18). The “Irwin at mg/kg dose” value in data set [6] (10 mg/kg oral) is “clean”; in data set [6] (30 mg/kg oral), “some side effects”; in data set [6] (100 mg/kg oral), “lethality”.

On to `O=C(O)C1(CCN2CCC(=C3c4ccc(Cl)cc4COc4ccccc43)CC2)CC1` [Compound 59b], for which the “hERG at micromolar (% blocking of the hERG channel)” value in data set [1] (human, 10 µM, pH 7.4) came out at 28% @ 10. The Ki in data set [2] was above 10 µM; in data set [3], above 10 µM; in data set [4], above 10 µM; in data set [7], 0.0667 µM. In addition, the LUSB in data set [5] (dose 10 mg/kg oral at CT-18) came out at 12.8 min; in data set [5] (dose 30 mg/kg oral at CT-18) it was 6.1 min. The NREM in data set [5] (dose 10 mg/kg oral at CT-18) stood at 42.4 min; in data set [5] (dose 30 mg/kg oral at CT-18) it was 23.1 min. Besides, the “Irwin at mg/kg dose” value in data set [6] (rat, in vivo) was “clean”.

Consider `O=C(O)C1(CN2CCC(=C3c4ccccc4COc4ccccc43)CC2)CC1` [Compound 69b], for which, in data set [1] (human, 10 µM, pH 7.4), the “hERG at micromolar (% blocking of the hERG channel)” value amounted to 12.6% @ 10. In addition, the inhibition constant (Ki) in data set [2] is above 10 µM; in data set [3] it was above 10 µM; in data set [4], above 10 µM; in data set [7], 0.0549 µM. Also, the LUSB in data set [5] (dose 3 mg/kg oral at CT-18) stood at 5.9 min; in data set [5] (dose 10 mg/kg oral at CT-18), 6.2 min; in data set [5] (dose 15 mg/kg oral at CT-18) it was 14.4 min; in data set [5] (dose 20 mg/kg oral at CT-18) it was 11.6 min; in data set [5] (dose 30 mg/kg oral at CT-18), 14 min. The NREM in data set [5] (dose 3 mg/kg oral at CT-18) was 14.9 min; in data set [5] (dose 10 mg/kg oral at CT-18), 44.3 min; in data set [5] (dose 15 mg/kg oral at CT-18), 43.4 min; in data set [5] (dose 20 mg/kg oral at CT-18) it was 39.4 min; in data set [5] (dose 30 mg/kg oral at CT-18), 41.6 min. In addition, the “Irwin at mg/kg dose” value in data set [6] (rat, in vivo) is on record as “clean”.

In the case of `CC(C)(CCN1CCC(=C2c3ccccc3COc3ccccc32)CC1)C(=O)O` [Compound 70a], the “hERG at micromolar (% blocking of the hERG channel)” value in data set [1] (human, 1 µM, pH 7.4) worked out at 5.1% @ 1. The Ki in data set [2] is 3.31 µM and 1.36 µM; in data set [4], 0.811 µM; in data set [7] it was 0.0368 µM. In addition, the figures for the LUSB in data set [5] (dose 10 mg/kg oral at CT-18), in data set [5] (dose 30 mg/kg oral at CT-18) and in data set [5] (dose 45 mg/kg oral at CT-18) were 3.7 min, 6 min and 12.1 min, respectively. Besides, the figures for the NREM in data set [5] (dose 10 mg/kg oral at CT-18), in data set [5] (dose 30 mg/kg oral at CT-18) and in data set [5] (dose 45 mg/kg oral at CT-18) were 13.2 min, 33.6 min and 29.3 min, respectively. In data set [6] (rat, in vivo), the “Irwin at mg/kg dose” value is reported as “clean”.

`O=C(O)CCCN1CCC(=C2c3ccccc3COc3ccccc32)CC1` [Compound 70e]: the “hERG at micromolar (% blocking of the hERG channel)” value in data set [1] was 2.7% @ 1. Besides, the Ki is above 10 µM in data set [2], above 10 µM in data set [3], above 10 µM in data set [4] and 0.136 µM in data set [7]. The LUSB in data set [5] (dose 3 mg/kg oral at CT-18) was 6.6 min; in data set [5] (dose 10 mg/kg oral at CT-18) it was 6.6 min; in data set [5] (dose 30 mg/kg oral at CT-18), 15 min. The NREM in data set [5] (dose 3 mg/kg oral at CT-18) amounted to 25.7 min; in data set [5] (dose 10 mg/kg oral at CT-18) it was 27.4 min; in data set [5] (dose 30 mg/kg oral at CT-18), 43.3 min. Also, the “Irwin at mg/kg dose” value is listed as “clean” in data set [6] (30 mg/kg oral); “some side effects” in data set [6] (100 mg/kg oral); 10, 30 clean; 100 some side effects in data set [6] (rat, in vivo).

As for `O=C(O)CN1CCC(=C2c3ccccc3COc3ccccc32)CC1` [Compound 71e], the “hERG at micromolar (% blocking of the hERG channel)” value in data set [1] worked out at 3.6% @ 1. The inhibition constant (Ki) was 5.13 µM in data set [2], above 10 µM in data set [3], 12.1 µM in data set [4] and 0.0607 µM in data set [7]. The molecule also came in with an LUSB in data set [5] (dose 30 mg/kg oral at CT-18) of 4.1 min. This molecule yielded an NREM in data set [5] (dose 30 mg/kg oral at CT-18) of 34.5 min. The “Irwin at mg/kg dose” value in data set [6] (30 mg/kg oral) is on record as “clean”; in data set [6] (100 mg/kg oral), “many side effects”; in data set [6] (rat, in vivo), 10, 30 clean; 100 many side effects.

The term Ki denotes the equilibrium dissociation constant of an inhibitor or competing ligand from its target.
